According to patent US6689753B1, “β sheet breaker peptide analogs that inhibit β pleated sheet formation in amyloid β-peptide” (Axonyx, Inc., priority 1999, dated 2004):
Non-standard residues stand in square brackets, D forms with d. Residues, ends and D or L forms follow the SMILES beside them.

Legend:
[1] = Peptide stability in rat plasma after i.v. bolus injection (radio-iodinated peptide, TCA precipitation, paper chromatography); type: in vivo; conditions: 15 minutes after i.v. injection
Protocol: d) Chirality changes. Replacement of the natural L-residue by the D-enantiomers dramatically increases resistance to proteolytic degradation. […] Indeed, approximately 90% of iAβ1 was degraded within minutes after intravenous injection. […] For detection, the peptide was radio-iodinated using standard procedures. Peptide stability was evaluated after i.v bolus injection in rats by precipitation with trichloroacetic acid. Quantitation of the intact peptide was also done by paper chromatography. […] In addition to the latter, D-residue are used after each proline amino acid, since it has been reported that a frequent endopeptidase cleavage site is after this residue by an enzyme known as prolylendopeptidase.

[2] = In vitro metabolism in human liver microsomes; type: in vitro ADME; conditions: one hour of incubation at 37°, read-out: peptide remained intact
[3] = In vitro assay of peptide stability in fresh human plasma; type: in vitro ADME
Protocol: One of the major drawbacks for the use of peptides as drugs is their rapid proteolytic degradation in biological fluids and tissues. In in vitro experiments, iAβ5, (Seq LPFFD- also depicted as Leu Pro Phe Phe Asp herein) degraded very quickly in vitro after incubation with fresh human plasma. […] Since it was not possible to identify any metabolic fragments as a result of the proteolytic digestion, it seems likely that the degradation is mainly done by unspecific exopeptidases. This conclusion is supported by the finding that protection of amino- and carboxy-terminus of the peptide by acetylation and amidation, respectively, (to form Ac-iAβ5-Am—also depicted as Ac-Leu Pro Phe Phe Asp-Am herein) dramatically increases the stability of the peptide in vitro.
In vitro assays of peptide stability. Peptides were prepared as a 1 μg/μl solution in water. 20 μl of the peptide solution was diluted in 80 μl of fresh human plasma. The solution was incubated at 37° C. for different time periods and the reaction was stopped by adding a complete cocktail of protease inhibitors. The bulk of the plasma proteins (none of the peptide) were precipitated in cold methanol (mix/MeOH, 4/5, v/v) for one hour at −20° C. […] The peak area corresponding to the intact peptide was measured and compared with an equivalent sample incubated without plasma.

[4] = In vitro metabolism in rat liver microsomes; type: in vitro ADME; conditions: one hour of incubation at 37°, read-out: peptide remained intact
Aβ1-42 amyloid deposits = Aβ1-42 amyloid deposits (Homo sapiens, UniProt P05067); conditions: cited from earlier work
Aβ = conditions: prior art; cited from earlier work
[5] = tested on: neuronal death induced by oligomeric Aβ; conditions: cell culture, prior art; cited from earlier work
PrP = PrP (Homo sapiens, UniProt P04156); conditions: cited from earlier work
Aβ1-40 = Aβ1-40 (Homo sapiens, UniProt P05067); experiment: In vitro amyloid formation assay, thioflavine T fluorescence; type: biochemical; conditions: Aβ incubated with peptide, ThT fluorescence, FIG. 5a
Aβ1-40, sequence (P05067 672-711): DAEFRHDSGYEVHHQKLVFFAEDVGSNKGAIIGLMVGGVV

Aβ1-42 amyloid deposits, sequence (P05067 672-713): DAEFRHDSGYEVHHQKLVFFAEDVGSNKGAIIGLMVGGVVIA

CC[C@@H](C)[C@@H](NC(=O)[C@H]1CCCN1C(=O)[C@H](NC(=O)[C@H]1CCCN1C(=O)[C@@H](Cc1ccc(O)cc1)NC(=O)[C@@H](Cc1ccccc1)NC(=O)[C@H]1CCCN1C(=O)[C@@H](CC(C)C)NC(=O)[C@@H](CC(=O)O)NC(=O)[C@H](N)CCCNC(=N)N)C(C)C)C(=O)N[C@H](CC(=O)O)C(=O)O (H-[dR][dD][dL][dP][dF][dY][dP][dV][dP][dI][dD]-OH; N-terminus and C-terminus assumed)
degradation in the plasma after injection [1]: virtually no degradation

CC(=O)N[C@@H](CC(C)C)C(=O)N1CCC[C@H]1C(=O)N[C@@H](Cc1ccccc1)C(=O)N[C@@H](Cc1ccccc1)C(=O)N[C@@H](CC(=O)O)C(N)=O [Ac-iAβ5-Am, Ac-Leu Pro Phe Phe Asp-Am] (Ac-LPFFD-NH2)
remaining at 1 h [2]: 81.5% | period the peptide remained stable in human plasma ([3]; human plasma, FIG. 4b): more than 24 hours | remaining at 1 h [4]: 76.3%

CC(C)C[C@H](N)C(=O)N1CCC[C@H]1C(=O)N[C@@H](Cc1ccccc1)C(=O)N[C@@H](Cc1ccccc1)C(=O)N[C@@H](CC(=O)O)C(=O)O [iAβ5, Leu Pro Phe Phe Asp] (H-LPFFD-OH)
cerebral Aβ accumulation and deposition of fibrillar amyloid-like lesions (Aβ1-42 amyloid deposits; co-injection with Aβ1-42, rat brain, prior art): decreased cerebral Aβ accumulation and completely blocked the deposition of fibrillar amyloid-like lesions | inhibition of amyloid plaque formation (Aβ1-42 amyloid deposits; co-injection with Aβ1-42, rat): 50% | dissolution of preformed deposits (Aβ1-42 amyloid deposits; i.c. injection in animals already containing amyloid plaques): 67% | half-life at 0.2 μg/μl ([3]; fresh human plasma, 37° C., FIG. 4a, read-out: time in which fifty percent of the peptide disappeared in plasma): ~5 min | inhibition of amyloid formation and dissolution of preformed fibrils in vitro (Aβ): inhibit peptide conformational changes that result in amyloid formation and also dissolved preformed fibrils | prevention of neuronal death [5]: capable of preventing the neuronal death

Asp Ala Pro Ala Ala Pro Ala Gly Pro ala Val Pro Val [iPrP13]
inhibitory activity on PrP conformational change among a set of β-sheet breaker peptides (PrP): showed the greatest activity

Aβ18-21: short Aβ fragment (VFFA; Amyloid-beta protein 42; UniProt P05067 689-692, looked up, fragment)
activity in inhibiting amyloid formation (fibrillogenesis) (Aβ1-40): no effect on fibrillogenesis or slightly increased amyloid formation

GYLTVAAVFRG [CP2, unrelated control peptide]
activity in inhibiting amyloid formation (fibrillogenesis) (Aβ1-40): no effect on fibrillogenesis or slightly increased amyloid formation

ISEVKMDAEF [CP10, unrelated control peptide]
activity in inhibiting amyloid formation (fibrillogenesis) (Aβ1-40): no effect on fibrillogenesis or slightly increased amyloid formation

RDLPFYPVPID [iAβ1]
inhibition of amyloid formation and dissolution of preformed fibrils in vitro (Aβ): inhibit peptide conformational changes that result in amyloid formation and also dissolved preformed fibrils

VHVSEEGTEPA [CP1, unrelated control peptide]
activity in inhibiting amyloid formation (fibrillogenesis) (Aβ1-40): no effect on fibrillogenesis or slightly increased amyloid formation
